Assay results reported in PubChem BioAssay AID248 (DTP/NCI, 2004).
Where “and” joins values, the source holds several entries; their conditions need not be identical. Identical values can stand only once. Inconclusive results and toxic doses are left out.

Tested on: L1210 leukemia ip in BDF1 mice, survival T/C
Experiment: NCI In Vivo Anticancer Drug Screen. Data for tumor model L1210 Leukemia (intraperitoneal) in B6D2F1 (BDF1) mice
Settings: endpoint: mean survival time, higher = longer survival
In short: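 Tumor cells were implanted, animals were treated, and survival was followed. The result divides the treated measurement by the vehicle-control measurement.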

[1] = dose: 100.0 mg/kg/injection, schedule: Q01DX009 (ip), vehicle: saline with Tween-80
[2] = dose: 100.0 mg/kg/injection, schedule: Q04DX003 (ip), vehicle: saline
[3] = dose: 100.0 mg/kg/injection, schedule: Q01DX009 (ip), vehicle: Klucel (hydroxypropylcellulose) (HPC)
[4] = dose: 200.0 mg/kg/injection, schedule: Q01DX009 (ip), vehicle: Klucel (hydroxypropylcellulose) (HPC)
[5] = dose: 100.0 mg/kg/injection, schedule: Q01DX001 (ip), vehicle: Klucel (hydroxypropylcellulose) (HPC)
[6] = dose: 200.0 mg/kg/injection, schedule: Q01DX001 (ip), vehicle: Klucel (hydroxypropylcellulose) (HPC)
[7] = dose: 400.0 mg/kg/injection, schedule: Q01DX009 (ip), vehicle: Klucel (hydroxypropylcellulose) (HPC)
[8] = dose: 100.0 mg/kg/injection, schedule: Q04DX003 (ip), vehicle: saline with Tween-80
[9] = dose: 200.0 mg/kg/injection, schedule: Q04DX003 (ip), vehicle: saline with Tween-80
[10] = dose: 400.0 mg/kg/injection, schedule: Q04DX003 (ip), vehicle: saline with Tween-80

`Nc1nc(SCc2ccccc2)c2[nH]cnc2n1` was tested, and the T/C (dose: 4.0 mg/kg/injection, schedule: Q01DX Z (ip), vehicle: carboxymethylcellulose (CMC)) was 124 % of control, the T/C (dose: 5.0 mg/kg/injection, schedule: Q03DX Z (ip), vehicle: carboxymethylcellulose (CMC)) was 92 % of control and the T/C (dose: 8.0 mg/kg/injection, schedule: Q01DX010 (ip), vehicle: saline) was 100 % of control. The T/C (dose: 8.0 mg/kg/injection, schedule: Q01DX Z (oral), vehicle: carboxymethylcellulose (CMC)) was 158 % of control, the T/C (dose: 10.0 mg/kg/injection, schedule: Q01DX Z (ip), vehicle: carboxymethylcellulose (CMC)) was 152 % of control and the T/C (dose: 10.0 mg/kg/injection, schedule: Q03DX Z (ip), vehicle: carboxymethylcellulose (CMC)) was 116 % of control. For the same compound, the T/C (dose: 15.0 mg/kg/injection, schedule: Q03DX Z (ip), vehicle: carboxymethylcellulose (CMC)) was 124 % of control, the T/C (dose: 20.0 mg/kg/injection, schedule: Q01DX001 (ip), vehicle: carboxymethylcellulose (CMC)) was 151 % of control and the T/C (dose: 20.0 mg/kg/injection, schedule: Q03DX Z (ip), vehicle: carboxymethylcellulose (CMC)) was 216 % of control. For the same compound, the T/C (dose: 41.0 mg/kg/injection, schedule: Q01DX001 (ip), vehicle: carboxymethylcellulose (CMC)) was 163 % of control, the T/C (dose: 41.0 mg/kg/injection, schedule: Q03DX Z (ip), vehicle: carboxymethylcellulose (CMC)) was 158 % of control and the T/C (dose: 41.0 mg/kg/injection, schedule: Q07DX Z (ip), vehicle: carboxymethylcellulose (CMC)) was 165 % of control. For the same compound, the T/C (dose: 60.0 mg/kg/injection, schedule: Q01DX Z (ip), vehicle: carboxymethylcellulose (CMC)) was 118 % of control, the T/C (dose: 62.5 mg/kg/injection, schedule: Q01DX010 (ip), vehicle: saline) was 108 % of control and the T/C (dose: 64.0 mg/kg/injection, schedule: Q01DX Z (oral), vehicle: carboxymethylcellulose (CMC)) was 124 % of control. For the same compound, the T/C (dose: 82.0 mg/kg/injection, schedule: Q01DX001 (ip), vehicle: carboxymethylcellulose (CMC)) was 157 % of control, the T/C (dose: 82.0 mg/kg/injection, schedule: Q07DX Z (ip), vehicle: carboxymethylcellulose (CMC)) was 168 % of control and the T/C (dose: 86.0 mg/kg/injection, schedule: Q01DX001 (ip), vehicle: carboxymethylcellulose (CMC)) was 163 % of control. For the same compound, the T/C (dose: 125.0 mg/kg/injection, schedule: Q01DX010 (ip), vehicle: saline) was 103 % of control, the T/C (dose: 129.0 mg/kg/injection, schedule: Q01DX001 (ip), vehicle: carboxymethylcellulose (CMC)) was 160 % of control and the T/C (dose: 195.0 mg/kg/injection, schedule: Q01DX001 (ip), vehicle: carboxymethylcellulose (CMC)) was 168 % of control and 181 % of control. The T/C (dose: 292.0 mg/kg/injection, schedule: Q03DX Z (ip), vehicle: carboxymethylcellulose (CMC)) was 101 % of control and the T/C (dose: 292.0 mg/kg/injection, schedule: Q07DX Z (ip), vehicle: carboxymethylcellulose (CMC)) was 114 % of control.

`CN1c2ccc(Cl)cc2C2(C(=O)NN)C(C(=O)NN)N(C3CCCCC3)C(=O)C12N` (configuration not stated) was tested, and the T/C [1] was 97 % of control and the T/C (dose: 200.0 mg/kg/injection, schedule: Q01DX009 (ip), vehicle: saline with Tween-80) was 107 % of control.

For `O=C1CC2(CC3(Cl)C(Cl)=C(Cl)C2(Cl)C3(Cl)Cl)C(=O)O1` (configuration not stated), the T/C (dose: 50.0 mg/kg/injection, schedule: Q01DX001 (ip), vehicle: carboxymethylcellulose (CMC)) was 100 % of control, the T/C (dose: 100.0 mg/kg/injection, schedule: Q01DX001 (ip), vehicle: carboxymethylcellulose (CMC)) was 102 % of control and the T/C (dose: 200.0 mg/kg/injection, schedule: Q01DX001 (ip), vehicle: carboxymethylcellulose (CMC)) was 102 % of control. The T/C (dose: 400.0 mg/kg/injection, schedule: Q01DX001 (ip), vehicle: carboxymethylcellulose (CMC)) was 102 % of control.

For `CCOC(=O)/C=C\CBr`, the T/C (dose: 4.0 mg/kg/injection, schedule: Q01DX015 (ip), vehicle: carboxymethylcellulose (CMC)) was 95 % of control, the T/C (dose: 8.0 mg/kg/injection, schedule: Q01DX015 (ip), vehicle: carboxymethylcellulose (CMC)) was 93 % of control and the T/C (dose: 16.0 mg/kg/injection, schedule: Q01DX015 (ip), vehicle: carboxymethylcellulose (CMC)) was 93 % of control. The T/C (dose: 32.0 mg/kg/injection, schedule: Q01DX015 (ip), vehicle: carboxymethylcellulose (CMC)) was 101 % of control and the T/C (dose: 100.0 mg/kg/injection, schedule: Q01DX001 (ip), vehicle: saline) was 104 % of control.

In the case of `CNC/C=C/CNC`, the T/C (dose: 25.0 mg/kg/injection, schedule: Q01DX009 (ip), vehicle: saline) is reported as 97 % of control, the T/C (dose: 25.0 mg/kg/injection, schedule: Q04DX003 (ip), vehicle: saline) is reported as 102 % of control and the T/C (dose: 50.0 mg/kg/injection, schedule: Q01DX009 (ip), vehicle: saline) is reported as 90 % of control. The T/C (dose: 50.0 mg/kg/injection, schedule: Q04DX003 (ip), vehicle: saline) was 93 % of control, the T/C (dose: 100.0 mg/kg/injection, schedule: Q01DX009 (ip), vehicle: saline) was 98 % of control and the T/C [2] was 98 % of control and 99 % of control.

For `C/C=C/C=N/NC(=O)c1ccc(OC)cc1`, the T/C [3] was 102 % of control and the T/C [4] was 86 % of control.

`CCOC(=O)Cc1ccc(N)cc1` was tested, and the T/C [5] was 104 % of control and the T/C [6] was 101 % of control.

`CC(=O)OC1CC2CC(C1C)C2(C)C` (configuration not stated) was tested, and the T/C (dose: 12.5 mg/kg/injection, schedule: Q01DX009 (ip), vehicle: saline with Tween-80) was 105 % of control, the T/C (dose: 25.0 mg/kg/injection, schedule: Q01DX009 (ip), vehicle: saline with Tween-80) was 91 % of control and the T/C (dose: 50.0 mg/kg/injection, schedule: Q01DX009 (ip), vehicle: saline with Tween-80) was 100 % of control.

With `Cc1cc2ccccc2[n+](C)c1-c1ccccc1Cl` the T/C (dose: 12.5 mg/kg/injection, schedule: Q04DX003 (ip), vehicle: saline) was 102 % of control.

For `O=C(/C=C/C(=O)Oc1ccc(Cl)cc1Cl)Oc1ccc(Cl)cc1Cl`, the T/C [3] was 94 % of control, the T/C (dose: 100.0 mg/kg/injection, schedule: Q04DX003 (ip), vehicle: Klucel (hydroxypropylcellulose) (HPC)) was 111 % of control and the T/C [4] was 95 % of control. The T/C (dose: 200.0 mg/kg/injection, schedule: Q04DX003 (ip), vehicle: Klucel (hydroxypropylcellulose) (HPC)) was 100 % of control, the T/C [7] was 97 % of control and the T/C (dose: 400.0 mg/kg/injection, schedule: Q04DX003 (ip), vehicle: Klucel (hydroxypropylcellulose) (HPC)) was 100 % of control.

In the case of `CCCCCCCCCC(=O)N(C)OC`, the T/C [8] is reported as 87 % of control, the T/C [9] is reported as 88 % of control and the T/C [10] is reported as 92 % of control.

`O=S(=O)(/N=c1/ccc(NS(=O)(=O)c2ccccc2)cn1O)c1ccccc1` was tested, and the T/C (dose: 50.0 mg/kg/injection, schedule: Q01DX001 (ip), vehicle: Klucel (hydroxypropylcellulose) (HPC)) was 96 % of control, the T/C [5] was 102 % of control and the T/C [6] was 98 % of control.

`O=c1cc(/C=N/Nc2ccc([N+](=O)[O-])cc2[N+](=O)[O-])c2cccc3c2n1CCC3` was tested, and the T/C [1] was 93 % of control, the T/C [8] was 98 % of control and the T/C [9] was 101 % of control. For the same compound, the T/C (dose: 400.0 mg/kg/injection, schedule: Q01DX009 (ip), vehicle: saline with Tween-80) was 93 % of control and the T/C [10] was 102 % of control.

In the case of `CS(=O)(=O)OCCN(CCOS(C)(=O)=O)c1ccc(N=O)c(F)c1`, the T/C (dose: 7.0 mg/kg/injection, schedule: Q01DX001 (ip), vehicle: saline) is reported as 151 % of control, the T/C (dose: 40.0 mg/kg/injection, schedule: Q01DX001 (ip), vehicle: saline) is reported as 98 % of control and the T/C (dose: 80.0 mg/kg/injection, schedule: Q01DX001 (ip), vehicle: saline) is reported as 93 % of control.

In the case of `O=S(=O)(N=C1C=CC(=NS(=O)(=O)c2ccccc2)C=C1)c1ccccc1`, the T/C (dose: 100.0 mg/kg/injection, schedule: Q01DX009 (ip), vehicle: gum acacia) is reported as 98 % of control, the T/C (dose: 100.0 mg/kg/injection, schedule: Q04DX003 (ip), vehicle: gum acacia) is reported as 98 % of control and the T/C (dose: 200.0 mg/kg/injection, schedule: Q01DX009 (ip), vehicle: gum acacia) is reported as 97 % of control. For the same compound, the T/C (dose: 200.0 mg/kg/injection, schedule: Q04DX003 (ip), vehicle: gum acacia) was 98 % of control and the T/C (dose: 400.0 mg/kg/injection, schedule: Q04DX003 (ip), vehicle: gum acacia) was 95 % of control.

In the case of `C/C=C/C(=O)Nc1cccc(C(F)(F)F)c1`, the T/C (dose: 25.0 mg/kg/injection, schedule: Q01DX009 (ip), vehicle: other) is reported as 92 % of control, the T/C (dose: 50.0 mg/kg/injection, schedule: Q01DX009 (ip), vehicle: other) is reported as 102 % of control and the T/C (dose: 100.0 mg/kg/injection, schedule: Q01DX009 (ip), vehicle: other) is reported as 92 % of control and 95 % of control.

`CCC(OBr)C1COC(Nc2ccccc2)O1` (configuration not stated) was tested, and the T/C [3] was 96 % of control, the T/C [2] was 95 % of control and the T/C [4] was 96 % of control. The T/C (dose: 200.0 mg/kg/injection, schedule: Q04DX003 (ip), vehicle: saline) was 105 % of control, the T/C [7] was 103 % of control and the T/C (dose: 400.0 mg/kg/injection, schedule: Q04DX003 (ip), vehicle: saline) was 101 % of control.
